Values of other authors, collected in US20170001952A1, “FUMARATE COMPOUNDS, PHARMACEUTICAL COMPOSITIONS THEREOF, AND METHODS OF USE” (priority 2015, published 2017).

aqueous solubility: poor aqueous solubility
SMILES: COC(=O)/C=C/C(=O)OC [DMF, dimethylfumarate]
